In US20140066365A1, “USE OF CALIXARENES ASSOCIATED WITH AN ANTIBIOTIC IN THE TREATMENT OF BACTERIAL INFECTIONS” (priority 2011, published 2014):
In brackets after ≈: the same amount, converted by molar mass. Like-named read-outs stand apart in the source and are kept apart here.

Experiments:
Assay type in all cases: cell-based
[1] = system: ESBL-producing strain of Escherichia coli, having an associated resistance to the aminoglycosides (EcR3); test: MIC of the compounds used alone, microdilution in a liquid medium (CLSI); settings: Escherichia coli, antibiotic alone (second value of cell), read-out: Initial MICs
Excerpt: (§1) The MICs of the antibiotics were previously defined for each strain, by the method of microdilution in a liquid medium (CLSI (Clinical and Laboratory Standards Institute), 2003).

[2] = system: Escherichia coli strain ATCC 25922 (wild type); test: as above; settings: Escherichia coli, ATCC25922; antibiotic alone (second value of cell); E. coli ATCC 25922; read-out: Initial MICs
Excerpt: as §1

[3] = system: cephalosporinase-hyperproducing strain of Escherichia coli (EcR2); test: as above; settings: Escherichia coli, antibiotic alone (second value of cell), read-out: Initial MICs
Excerpt: as §1

[4] = system: penicillinase-producing strain of Escherichia coli without associated resistance (EcR1); test: as above; settings: Escherichia coli, antibiotic alone (second value of cell), read-out: Initial MICs
Excerpt: as §1

[5] = system: EcR1: Penicillinase-Producing Escherichia coli without Associated Resistance; test: Antibiogram, MIC by the VITEK 2 system; settings: for MIC: Escherichia coli
Method: (§2) 5.1 EcR1: Penicillinase-Producing Escherichia coli without Associated Resistance The bacterial and antibiogramidentification is carried out by the VITEK 2 system (bioMérieux) and by the disk diffusion technique.

[6] = system: EcR1: Penicillinase-Producing Escherichia coli without Associated Resistance; test: Antibiogram by the disk diffusion technique; settings: Table A1
Method: as §2

[7] = system: EcR3: ESBL-Producing Escherichia coli; test: Antibiogram by the disk diffusion technique
Method: The bacterial and antibiogramidentification is carried out by the VITEK 2 system (bioMerieux) and by the disk diffusion technique

[8] = system: PaR3: Pseudomonas aeruginosa; test: Antibiogram, MIC by the VITEK 2 system
Method: (§3) The bacterial and antibiogramidentification is carried out by the VITEK 2 system (bioMérieux)

[9] = system: PaR5: Pseudomonas aeruginosa; test: Antibiogram by the disk diffusion technique
Method: (§4) The bacterial and antibiogramidentification is carried out by the VITEK 2 system (bioMérieux) and by the disk diffusion technique

[10] = system: PaR2: Pseudomonas aeruginosa
Method: as §4

[11] = system: SaR3: Meticillin-Resistant Staphylococcus aureus; test: Antibiogram by the disk diffusion technique; settings: for Diameter: Table E1; for Results: Table E1, against Dmin Dmax; for CA-SFM Interpretation: Cd CA-SFM 2011; for diameter in mm: Table E2
Method: as §4

[12] = system: SaR4: Meticillin-Resistant Staphylococcus aureus; test: Antibiogram, MIC by the VITEK 2 system; settings: SaR4; for CA-SFM Interpretation: Cc CA-SFM 2011
Method: as §4

[13] = system: SaR1: Meticillin-Resistant Staphylococcus aureus without Associated Resistance; test: Antibiogram, inhibition diameter (Table D1); settings: for Results: from diameter, against Dmin Dmax
Method: as §3

[14] = system: SaR1: Meticillin-Resistant Staphylococcus aureus without Associated Resistance; test: Antibiogram, MIC by the VITEK 2 system; settings: SaR1; for CA-SFM Interpretation: Cc CA-SFM 2011; for Results: from MIC
Method: as §3

[15] = Staphylococcus aureus, Table F1, read-out: MIC

Molecule: CCN1CCN(C(=O)N[C@@H](C(=O)N[C@@H]2C(=O)N3[C@@H]2SC(C)(C)[C@@H]3C(=O)O)c2ccccc2)C(=O)C1=O [Piperacillin]
- MIC [1]: 128 µg/mL
- MIC [2]: 2 µg/mL
- MIC [3]: 32 µg/mL
- MIC [4]: 256 µg/mL
- CA-SFM Interpretation ([5]; EcR1, MIC against Cc CA-SFM 2011): Susceptible
- CLSI Interpretation ([5]; EcR1, MIC against Cc CLSI 2011): Susceptible
- EUCAST Interpretation ([5]; EcR1, MIC against Cc EUCAST 2011): Susceptible
- Results ([5]; EcR1, interpretation of the MIC, Table A1): Susceptible
- MIC ([5]; EcR1, Table A2, read-out: MIC mg/L (diameter in mm)): ≤ 8 mg/L
- MIC ([5]; EcR1, VITEK 2, Table A1, read-out: MIC): ≤ 8 mg/L
- Diameter ([6]; EcR1, disk diffusion): 17 mm
- Results ([6]; EcR1, interpretation of the diameter against Dmin Dmax): Intermediate
- CA-SFM Interpretation ([7]; Cd CA-SFM 2011): Resistant
- CLSI Interpretation ([7]; Cd CLSI 2011): Resistant
- EUCAST Interpretation ([7]; Cd EUCAST 2011): Resistant
- Diameter ([7]; Table C1): 13 mm
- Results ([7]; Table C1, against Dmin Dmax): Intermediate
- diameter in mm ([7]; Table C2): 13 mm
- CA-SFM Interpretation ([8]; Cc CA-SFM 2011): Resistant
- CLSI Interpretation ([8]; Cc CLSI 2011): Resistant
- EUCAST Interpretation ([8]; Cc EUCAST 2011): Resistant
- MIC ([8]; Pseudomonas aeruginosa, Table H2, read-out: MIC): ≥ 128 µg/mL
- MIC ([8]; Table H1): ≧128
- Results ([8]; Table H1): Resistant
- Diameter ([9]; PaR5, Table I1): 33 mm
- Results ([9]; PaR5, Table I1, against Dmin-Dmax): Susceptible
- diameter in mm ([9]; disk diffusion inhibition diameter, strain PaR5): 33 mm
- CA-SFM Interpretation ([9]; disk diffusion, PaR5, versus critical diameter CA-SFM 2011): Susceptible
- CLSI Interpretation ([9]; disk diffusion, PaR5, versus critical diameter CLSI 2011): Susceptible
- EUCAST Interpretation ([9]; disk diffusion, PaR5, versus critical diameter EUCAST 2011, for ** antibiotics the disk load differs and the EUCAST interpretation is not applicable): Susceptible
- CA-SFM Interpretation ([10]; Cd CA-SFM 2011): Susceptible
- CLSI Interpretation ([10]; Cd CLSI 2011): Susceptible
- EUCAST Interpretation ([10]; Cd EUCAST 2011): Susceptible
- Diameter ([10]; Table G1): 22 mm
- Results ([10]; Table G1, against Dmin-Dmax): Susceptible
- diameter in mm ([10]; Table G2): 22 mm

Molecule: O=C(N[C@H](CO)[C@H](O)c1ccc([N+](=O)[O-])cc1)C(Cl)Cl [Chloramphenicol]
- Diameter [11]: 6 mm
- Results [11]: Resistant
- Results ([12]; Table F1, MIC): Susceptible
- MIC [12, 15]: 8 µg/mL (≈ 24.8 µM)
- Diameter [13]: 25 mm
- Results [13]: Susceptible

Molecule: Teicoplanin
- CA-SFM Interpretation [14]: Susceptible
- CLSI Interpretation ([14]; Cc CLSI 2011): Susceptible
- EUCAST Interpretation ([14]; Cc EUCAST 2011): Susceptible
- MIC mg/L ([14]; Table D1): ≦0.5 mg/L
- Results ([14]; Table D1): Susceptible
- MIC mg/L ([14]; Table D2): ≦0.5 mg/L
- CA-SFM Interpretation [11]: Susceptible
- CLSI Interpretation ([11]; Cd CLSI 2011): Susceptible
- Results [11]: Susceptible
- diameter in mm [11]: 27 mm
- MIC mg/L ([12]; Table F1): ≦4 mg/L
- Results ([12]; Table F1, MIC): Susceptible
- MIC ([12]; Table F2, MIC): ≦4 mg/L
- CA-SFM Interpretation ([12]; from MIC): Susceptible
- CLSI Interpretation ([12]; from MIC, Cc CLSI 2011): Susceptible
- EUCAST Interpretation ([12]; from MIC, Cc EUCAST 2011): Susceptible
- Results [13]: Susceptible

Molecule: CCC[C@@H]1C[C@@H](C(=O)N[C@@H]([C@H]2O[C@H](SC)[C@H](O)[C@@H](O)[C@H]2O)[C@@H](C)O)N(C)C1 [Lincomycin]
- CA-SFM Interpretation [14]: Susceptible
- Results ([14]; Table D1): Susceptible
- MIC mg/L ([14]; Table D2): ≦1 mg/L
- MIC ([14]; Staphylococcus aureus, Table D1, read-out: MIC): ≤ 1 µg/mL
- CA-SFM Interpretation [11]: Susceptible
- Diameter [11]: 23 mm
- Results [11]: Susceptible
- diameter in mm [11]: 23 mm
- Results ([12]; Table F1, MIC): Resistant
- CA-SFM Interpretation ([12]; from MIC): Resistant
- MIC [12, 15]: ≥ 16 µg/mL
- MIC ([12]; Staphylococcus aureus, Table F2, MIC, read-out: MIC): ≥ 16 µg/mL
- Diameter [13]: 24 mm
- Results [13]: Susceptible

Molecule: C[C@@H](O)[C@H]1C(=O)N2C(C(=O)O)=C(S[C@@H]3CN[C@H](C(=O)Nc4cccc(C(=O)O)c4)C3)[C@H](C)[C@H]12 [Ertapenem]
- MIC [1]: 0.0015 µg/mL
- MIC [2]: 0.015 µg/mL
- MIC [3]: 0.03 µg/mL
- MIC [4]: 0.015 µg/mL
